Legend:
[1] = tested on: 4T1 tumors; assay: Wild-type or cGAS-knockout orthotopic 4T1 tumors treated intratumorally with ADU-S100; type: in vivo, mouse; conditions: ADU-S100 10 μg intratumorally, cGAS KO vs wild-type
Description: Methods. Briefly, wild-type or cGAS-knockout 4T1 tumors were orthotopically transplanted in the mammary fat pad of BALB/c immune competent mice. cGAS was knocked out using CRISPR-Cas9. The mice were treated intratumorally with PBS (vehicle) or the STING agonist, ADU-S100 (10 μg).

[2] = tested on: 4T1 cells; assay: Ifnb1 and ISG expression in transfected 4T1 cells (qPCR); type: cell-based, mouse
Description: Quantitative PCR for STING inhibition study: RNA was extracted from cells with Trizol (Invitrogen, Carlsbad, CA, #15596026). cDNA was synthesized using the RNA to cDNA EcoDry™ Premix (Double Primed) kit (Takara #639549). Real-time PCR was performed to measure the relative mRNA expression levels of ISGs and the control GAPDH using Luna® Universal qPCR Master Mix (NEB, IPSWICH, MA, M3003L). The qPCR reaction and analysis were performed on a QuantStudio 6 platform (Life technology, Carlsbad, CA). The sequence of primers for Ccl5 is 5′-[…]-3′ and 5′-[…]-3′. The sequence of primers for Cxcl10 is 5′-[…]-3′ and 5′-[…]-3′, The sequence of primers for Isg15 is 5-A AAGAA-[…]-3′ and 5′-[…]-3′. The sequence for primers for Gapdh is 5′-[…]-3′ and 5′-[…]-3′.
Despite constitutive cGAS-STING activation, 4T1 cells had low baseline expression of Ifnb1 and other ISGs. […] Similar to our in vitro findings, control, cGAS-KO, and STING-KO tumors had low basal—and nearly undetectable—levels of IFN-β, when compared to those observed during active anti-tumor immune responses arising from immune checkpoint blockade of a responsive tumor model used as a reference control (FIG. 6D).

[3] = tested on: CT26 cells; assay: Tail vein inoculation of CT26 cells in BALB/c mice, metastasis and survival; type: in vivo, mouse; conditions: CT26, BALB/c, IP, vs vehicle
Description: Animal metastasis studies: Animal experiments were performed in accordance with protocols approved by the MSKCC Institutional Animal Care and Use Committee. […] There was no need to randomize animals. Investigators were not blinded to group allocation. For tail vein injections, 5×10^4 4T1, 2.5×10^4 B16F10, or 10^5 CT26 cells were injected into the tail vein of 6-7-week old BALB/c (4T1 and CT26) or C57BL/6 (B16F10) mice. Metastasis was primarily assessed through overall survival. Overall survival endpoint was met when the mice died or met the criteria for euthanasia under the IACUC protocol. Animals were censored when death was confirmed to have occurred due to metastasis-unrelated causes such as injury or death during injection, surgery, or anesthesia. Surface lung metastases were assessed at endpoint by direct visual examination after euthanasia at which points lungs were perfused and fixed in 4% paraformaldehyde (4T1 and B16F10 experiments) or stained using India-ink (CT26 experiments). […] H-151 was reconstituted in DMSO with concentration of 100 mM. Each mouse was injected intraperitoneally with 7.5 μL of H-151 stock solution in 200 μL of PBS with 0.1% Tween −80.

[4] = tested on: 4T1 cells; assay: Wound migration of control, Cgas-KO and Enpp1-KO 4T1 cells; type: cell-based, mouse; conditions: cGAMP 5.5 μm
Description: Cellular growth and migration assays: Cellular proliferation rates were assessed by seeding 5×10^4 control or Enpp1-KO 4T1 cells in 6-well plates (3-4 replicates per condition). Cells were seeded in the regular RPMI medium with 10% Fetal bovine serum (FBS). About 48 hours before cells growing to form a 90% confluency monolayer, regular media were replaced with media containing indicated drugs. […] Fresh medium was changed every 12 hours. When reaching ˜90% confluency, cells were treated with RPMI medium containing 10 μm Mitomycin C for 1 hour. Wounds were formed using sterile P200 pipette tips. Images of the wounds were captured every 8 hours and were analyzed with a wound healing tool macro in ImageJ (dev.mri.cnrs.fr/projects/imagej-macros/wiki/Wound_Healing_Tool).
Through its ability to bind extracellular adenosine receptors in both tumor and immune cells, adenosine promotes cancer cell migration and is a potent immune suppressor, respectively (FIG. 12B).

[5] = tested on: 4T1 cells; assay: Fluorescence-based indirect adenosine measurement after exogenous cGAMP; type: cell-based, mouse; conditions: with and without EHNA

With Nc1ncnc2c1ncn2[C@@H]1O[C@@H]2COP(=O)([S-])O[C@@H]3[C@H](O)[C@@H](COP([O-])(=S)O[C@H]2[C@H]1O)O[C@H]3n1cnc2c(N)ncnc21.[Na+].[Na+] (stereo partly shown) [ADU-S100] the “tumor sensitivity (tumor volume over time)” value [1] was “most sensitive condition”.

Poly(I.C) was tested, and the “induction of ISGs upon transfection” value [2] was “robust induction of ISGs”.

In the case of CCc1ccc(NC(=O)Nc2c[nH]c3ccccc23)cc1 [H-151], the “survival of tumor bearing mice” value [3] is reported as “significant prolongation in overall survival”.

Nc1nc2c(ncn2[C@@H]2O[C@@H]3COP(=O)(O)O[C@H]4[C@@H](O)[C@H](n5cnc6c(N)ncnc65)O[C@@H]4COP(=O)(O)O[C@@H]2[C@@H]3O)c(=O)[nH]1 [cGAMP, 2′3′-cGAMP] was tested, and the “rescue of cancer cell migration by exogenous cGAMP” value [4] was “rescued migration only in Cgas-KO but not Enpp1-KO tumor cells”, the “H2O2 production after addition of exogenous cGAMP” value [5] was “concentration-dependent increase” and the “increase in ISG expression upon transfection” value [2] was roughly 2 fold. For the same molecule, the “induction in Ifnb1 upon transfection” value [2] was “no induction”.

Source: patent US20230324392A1, “METHODS AND COMPOSITIONS FOR TARGETING CYTOSOLIC DSDNA SIGNALING IN CHROMOSOMALLY UNSTABLE CANCERS” (MEMORIAL SLOAN KETTERING CANCER CENTER, priority 2020, published 2023)
